Columns and labels:
[1] = test system: johnsongrass; experiment: Test C pre-/postemergence herbicide test; format: in vivo, Sorghum halepense
Method in brief: (§1)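 Plants grown and held in a greenhouse for 13 to 15 days post-spray, then rated 0–100 by visual comparison with controls. Pre treatments targeted seeds in loam and sand; post treatments targeted 1- to 4-leaf plants in peat-based potting medium.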

[2] = test system: ragweed; experiment: Test C pre-/postemergence herbicide test; format: in vivo, Ambrosia elatior
Method in brief: as §1

[3] = test system: giant foxtail; experiment: Test A pre-/postemergence herbicide test; format: in vivo, Setaria faberii
Method in brief: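 Approximately 10 days after treatment in the greenhouse, plants were compared with untreated controls and given a 0–100 visual injury rating. Applications: preemergence directed soil spray; postemergence on 2–10 cm plants at the one- to two-leaf stage.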

[4] = test system: crabgrass, large; experiment: Test C pre-/postemergence herbicide test; format: in vivo, Digitaria sanguinalis
Method in brief: as §1

[5] = test system: barnyardgrass; experiment: Test C pre-/postemergence herbicide test; format: in vivo, Echinochloa crus-galli
Method in brief: as §1

[6] = test system: waterhemp; experiment: Test C pre-/postemergence herbicide test; format: in vivo, Amaranthus rudis
Method in brief: as §1

[7] = test system: barnyardgrass; experiment: Test B flooded paddy test; format: in vivo, Echinochloa crus-galli; settings: 500 g ai/ha, Flood; scale of 0 to 100 where 0 is no effect and 100 is complete control
Method in brief: (§2)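 Plants were grown to the 2-leaf stage, then pots were flooded to 3 cm above the soil and compound was applied directly into the paddy water, with that depth held throughout. After 13 to 15 days in a greenhouse, injury was rated visually against untreated controls on a 0 to 100 scale (100 = complete control).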

[8] = test system: sedge, umbrella; experiment: Test B flooded paddy test; format: in vivo, Cyperus difformis; settings: 500 g ai/ha, Flood; scale of 0 to 100 where 0 is no effect and 100 is complete control
Method in brief: as §2

[9] = test system: ryegrass, Italian; experiment: Test C pre-/postemergence herbicide test; format: in vivo, Lolium multiflorum
Method in brief: as §1

[10] = test system: velvetleaf; experiment: Test C pre-/postemergence herbicide test; format: in vivo, Abutilon theophrasti
Method in brief: as §1

[11] = test system: oat, wild; experiment: Test C pre-/postemergence herbicide test; format: in vivo, Avena fatua; settings: Postemergence
Method in brief: as §1

[12] = Postemergence, 31 g ai/ha, scale 0 to 100 (0 no effect, 100 complete control)
[13] = Postemergence, 62 g ai/ha, scale 0 (no effect) to 100 (complete control)
[14] = Postemergence, 125 g ai/ha, scale 0 to 100 (0 no effect, 100 complete control)
[15] = Postemergence, 250 g ai/ha, scale 0 to 100 (0 no effect, 100 complete control)
[16] = Preemergence, 31 g ai/ha, scale 0 to 100, 0 is no effect and 100 is complete control
[17] = Preemergence, 62 g ai/ha, scale 0 to 100 (0 no effect, 100 complete control)
[18] = Preemergence, 125 g ai/ha, scale 0 to 100
[19] = Preemergence, 125 g ai/ha, scale 0 to 100 (0 no effect, 100 complete control)
[20] = 31 g ai/ha, scale 0 to 100 (0 no effect, 100 complete control)
[21] = 62 g ai/ha, scale 0 (no effect) to 100 (complete control)
[22] = 125 g ai/ha, scale 0 to 100 (0 no effect, 100 complete control)
[23] = 250 g ai/ha, scale 0 to 100 (0 no effect, 100 complete control)

O=C1NCC(c2cccc(C(F)(F)F)c2)C1C(=O)Nc1cccc(Cl)c1F (stereo not shown) [Compound 316]
Plant response rating, Johnsongrass [1, 12]: 0
Plant response rating, Johnsongrass [1, 13]: 0
Plant response rating, Johnsongrass [1, 14]: 0
Plant response rating, Johnsongrass [1, 15]: 0
Johnsongrass plant response rating [1, 16]: 50
Johnsongrass plant response rating [1, 17]: 75
Plant response rating, Johnsongrass [1, 18]: 75
Plant response rating (scale of 0 to 100), Johnsongrass ([1]; Preemergence, 250 g ai/ha): 85
Plant response rating, Ragweed [2, 12]: 45
Plant response rating, Ragweed [2, 13]: 0
Plant response rating, Ragweed [2, 14]: 35
Plant response rating, Ragweed [2, 15]: 65
Ragweed plant response rating [2, 17]: 0
Plant response rating, Ragweed [2, 18]: 10
Plant response rating, Foxtail, Giant ([3]; Postemergence, 125 g ai/ha, visual rating on 0 to 100 scale (0 no effect, 100 complete control), approx. 10 days): 90
Plant response rating, Foxtail, Giant ([3]; Postemergence, 500 g ai/ha, 0 to 100 scale (0 no effect, 100 complete control)): 90
Plant response rating, Foxtail, Giant ([3]; Preemergence, 125 g ai/ha, 0 to 100 scale where 0 is no effect and 100 is complete control): 90
Foxtail, Giant plant response rating ([3]; Preemergence, 500 g ai/ha, visual rating on 0 to 100 scale (0 no effect, 100 complete control)): 90
Plant response rating, Crabgrass, Large [4, 12]: 0
Plant response rating, Crabgrass, Large [4, 13]: 50
Plant response rating, Crabgrass, Large [4, 14]: 60
Plant response rating, Crabgrass, Large [4, 15]: 70
Crabgrass, Large plant response rating [4, 16]: 90
Crabgrass, Large plant response rating [4, 17]: 95
Plant response rating, Crabgrass, Large [4, 18]: 95
Plant response rating (scale of 0 to 100), Crabgrass, Large ([4]; Preemergence, 250 g ai/ha): 98
Plant response rating, Barnyardgrass [5, 12]: 10
Plant response rating, Barnyardgrass [5, 13]: 35
Plant response rating, Barnyardgrass [5, 14]: 60
Plant response rating, Barnyardgrass [5, 15]: 70
Barnyardgrass plant response rating [5, 16]: 85
Barnyardgrass plant response rating [5, 17]: 85
Plant response rating, Barnyardgrass [5, 19]: 90
Plant response rating (scale of 0 to 100; 0 is no effect, 100 is complete control), Barnyardgrass ([5]; Preemergence, 250 g ai/ha): 90
Plant response rating, Waterhemp [6, 12]: 10
Plant response rating, Waterhemp [6, 13]: 10
Plant response rating, Waterhemp [6, 14]: 10
Plant response rating, Waterhemp [6, 15]: 55
Waterhemp plant response rating [6, 17]: 35
Plant response rating, Waterhemp [6, 18]: 35
Plant response rating, Barnyardgrass [7]: 60
Plant response rating, Sedge, Umbrella [8]: 0
Plant response rating, Ryegrass, Italian [9, 12]: 0
Plant response rating, Ryegrass, Italian [9, 13]: 0
Plant response rating, Ryegrass, Italian [9, 14]: 0
Plant response rating, Ryegrass, Italian [9, 15]: 5
Ryegrass, Italian plant response rating [9, 17]: 0
Plant response rating, Ryegrass, Italian [9, 18]: 10
Plant response rating, Velvetleaf [10, 12]: 0
Plant response rating, Velvetleaf [10, 13]: 0
Plant response rating, Velvetleaf [10, 14]: 45
Plant response rating, Velvetleaf [10, 15]: 35
Velvetleaf plant response rating [10, 17]: 10
Plant response rating, Velvetleaf [10, 18]: 10
Plant response rating, Oat, Wild [11, 20]: 0
Plant response rating, Oat, Wild [11, 21]: 0
Plant response rating, Oat, Wild [11, 22]: 5
Plant response rating, Oat, Wild [11, 23]: 30

O=C1NCC(c2ccc(C(F)(F)F)cc2)C1C(=O)Nc1ccc(F)c(F)c1F (stereo not shown) [Compound 232]
Plant response rating, Johnsongrass [1, 12]: 0
Plant response rating, Johnsongrass [1, 13]: 20
Plant response rating, Johnsongrass [1, 14]: 20
Plant response rating, Johnsongrass [1, 15]: 25
Johnsongrass plant response rating [1, 16]: 0
Johnsongrass plant response rating [1, 17]: 20
Plant response rating, Johnsongrass [1, 19]: 60
Plant response rating (scale of 0 to 100), Johnsongrass ([1]; Preemergence, 250 g ai/ha): 70
Plant response rating, Ragweed [2, 12]: 75
Plant response rating, Ragweed [2, 13]: 80
Plant response rating, Ragweed [2, 14]: 85
Plant response rating, Ragweed [2, 15]: 75
Ragweed plant response rating [2, 16]: 65
Ragweed plant response rating [2, 17]: 85
Plant response rating, Ragweed [2, 19]: 85
Plant response rating (scale of 0 to 100), Ragweed ([2]; Preemergence, 250 g ai/ha): 90
Plant response rating, Foxtail, Giant ([3]; 125 g ai/ha, visual rating, 0 to 100 scale, 0 no effect, 100 complete control, approximately 10 days, preemergence): 90
Plant response rating, Foxtail, Giant ([3]; Postemergence, 125 g ai/ha, 0 to 100 scale, 0 is no effect, 100 is complete control): 90
Foxtail, Giant plant response rating (0 to 100 scale, 0 is no effect, 100 is complete control) ([3]; Postemergence, 500 g ai/ha): 90
Plant response rating, Foxtail, Giant ([3]; preemergence, 500 g ai/ha, 0 to 100 scale, 0 is no effect and 100 is complete control): 90
Plant response rating, Crabgrass, Large [4, 12]: 25
Plant response rating, Crabgrass, Large [4, 13]: 35
Plant response rating, Crabgrass, Large [4, 14]: 60
Plant response rating, Crabgrass, Large [4, 15]: 75
Crabgrass, Large plant response rating [4, 16]: 85
Crabgrass, Large plant response rating [4, 17]: 90
Plant response rating, Crabgrass, Large [4, 19]: 90
Plant response rating (scale of 0 to 100), Crabgrass, Large ([4]; Preemergence, 250 g ai/ha): 90
Plant response rating, Barnyardgrass [5, 12]: 5
Plant response rating, Barnyardgrass [5, 13]: 55
Plant response rating, Barnyardgrass [5, 14]: 70
Plant response rating, Barnyardgrass [5, 15]: 75
Barnyardgrass plant response rating [5, 16]: 85
Plant response rating, Barnyardgrass ([5]; Preemergence, 62 g ai/ha, scale 0 to 100): 85
Plant response rating, Barnyardgrass [5, 19]: 95
Plant response rating (scale of 0 to 100; 0 is no effect, 100 is complete control), Barnyardgrass ([5]; Preemergence, 250 g ai/ha): 95
Plant response rating, Waterhemp [6, 12]: 75
Plant response rating, Waterhemp [6, 13]: 75
Plant response rating, Waterhemp [6, 14]: 80
Plant response rating, Waterhemp [6, 15]: 80
Waterhemp plant response rating [6, 16]: 85
Waterhemp plant response rating [6, 17]: 90
Plant response rating, Waterhemp [6, 19]: 90
Plant response rating (scale of 0 to 100), Waterhemp ([6]; Preemergence, 250 g ai/ha): 95
Plant response rating, Barnyardgrass [7]: 85
Plant response rating, Sedge, Umbrella [8]: 0
Plant response rating, Ryegrass, Italian [9, 12]: 0
Plant response rating, Ryegrass, Italian [9, 13]: 0
Plant response rating, Ryegrass, Italian [9, 14]: 0
Plant response rating, Ryegrass, Italian [9, 15]: 40
Ryegrass, Italian plant response rating [9, 16]: 0
Ryegrass, Italian plant response rating [9, 17]: 0
Plant response rating, Ryegrass, Italian [9, 19]: 20
Plant response rating (scale of 0 to 100), Ryegrass, Italian ([9]; Preemergence, 250 g ai/ha): 40
Plant response rating, Velvetleaf [10, 12]: 5
Plant response rating, Velvetleaf [10, 13]: 15
Plant response rating, Velvetleaf [10, 14]: 30
Plant response rating, Velvetleaf [10, 15]: 60
Velvetleaf plant response rating [10, 16]: 25
Velvetleaf plant response rating [10, 17]: 40
Plant response rating, Velvetleaf [10, 19]: 65
Plant response rating (scale of 0 to 100), Velvetleaf ([10]; Preemergence, 250 g ai/ha): 75
Plant response rating, Oat, Wild [11, 20]: 0
Plant response rating, Oat, Wild [11, 21]: 0
Plant response rating, Oat, Wild [11, 22]: 0
Plant response rating, Oat, Wild [11, 23]: 30
